{
  "source": "PubChem BioAssay AID179",
  "about": "(DTP/NCI, 2004)",
  "test_system": "CEM cells HIV-1 protection, formazan growth assay",
  "test": "NCI AIDS Antiviral Assay",
  "conditions": "for pIC50: measured here: growth of uninfected CEM cells",
  "how_it_was_run": "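CEM (human) cells, HIV-1 infected vs uninfected, 5-point dosing, formazan growth read-out. Retest threshold 50% protection.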",
  "note": "pEC50, pIC50: −log10 of the molar value. Activity calls are given as the source filed them.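 The calls were made as follows: active = compounds giving half or more protection of infected cells from virus-caused growth loss, again on retest; inactive = the rest.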",
  "data": [
    {"smiles": "O=C1C2(Cl)C3(Cl)C4(OCCO4)C4(Cl)C2(Cl)C2(Cl)C1(Cl)C3(Cl)C42Cl", "note": "(stereo not given)", "values": [
      {"measurement": "pEC50", "value": "< 3.70"},
      {"measurement": "pIC50", "value": 4.54}
    ]},
    {"smiles": "COc1ccc2c(c1)CSCC2=O", "values": [
      {"measurement": "pEC50", "value": "< 3.29"},
      {"measurement": "pIC50", "value": "< 3.70"}
    ]},
    {"smiles": "CCOC(=O)C1(Cc2c[nH]c3ccccc23)C(O)CCCN1C(C)=O", "note": "(stereo not given)", "values": [
      {"measurement": "pEC50", "value": "< 3.70"},
      {"measurement": "pIC50", "value": 3.81}
    ]},
    {"smiles": "N.N.N.N.N.[Cl-].[Co+3].c1ccc(-c2nn[n-]n2)cc1", "values": [
      {"measurement": "pEC50", "value": "< 3.16"},
      {"measurement": "pIC50", "value": "< 3.16"}
    ]},
    {"smiles": "CC(=O)c1sc2[n+](c1C)C(=O)/C(=C\\c1ccccc1Cl)S2", "values": [
      {"measurement": "pEC50", "value": 4.50},
      {"measurement": "pIC50", "value": 3.96}
    ]},
    {"smiles": "Cc1cc(=S)c2cc3c(cc2[nH]1)OCO3", "values": [
      {"measurement": "pEC50", "value": "< 3.70"},
      {"measurement": "pIC50", "value": 4.10}
    ]},
    {"smiles": "CC(=O)OCCn1c([N+](=O)[O-])cnc1/C=[N+](/[O-])CCO", "values": [
      {"measurement": "outcome", "value": "inactive"}
    ]},
    {"smiles": "OCC1COc2cc(Cl)c(Cl)cc2O1", "note": "(stereo not given)", "values": [
      {"measurement": "pEC50", "value": "< 3.70"},
      {"measurement": "pIC50", "value": 3.92}
    ]},
    {"smiles": "O=c1[nH]c2nc3ccccc3c(=O)n2nc1Cc1ccccc1", "values": [
      {"measurement": "pEC50", "value": "< 4.35"},
      {"measurement": "pIC50", "value": "< 4.35"}
    ]},
    {"smiles": "CCOC(=O)NC(=O)c1cn(CCNCCO)c(=O)[nH]c1=O", "values": [
      {"measurement": "outcome", "value": "inactive"}
    ]},
    {"smiles": "Clc1cccc2c(N3CC3)cnnc12", "values": [
      {"measurement": "outcome", "value": "inactive"}
    ]},
    {"smiles": "CC(C)=C1CCC(C)C/C1=N\\NC(N)=S", "note": "(stereo not given)", "values": [
      {"measurement": "pEC50", "value": "< 3.70"},
      {"measurement": "pIC50", "value": 4.71}
    ]},
    {"smiles": "CCN(CC)C(=O)c1c(Cl)cc(N(CC)CC)oc1=O", "values": [
      {"measurement": "pEC50", "value": "< 3.08"},
      {"measurement": "pIC50", "value": "< 3.08"}
    ]},
    {"smiles": "c1ccc2c(c1)SCC1COCOC21", "note": "(stereo not given)", "values": [
      {"measurement": "pEC50", "value": "< 3.20"},
      {"measurement": "pIC50", "value": 3.21}
    ]},
    {"smiles": "CCN(CC)C1C(=O)NC1C#Cc1ccccc1", "note": "(stereo not given)", "values": [
      {"measurement": "pEC50", "value": "< 3.70"},
      {"measurement": "pIC50", "value": 4.07}
    ]},
    {"smiles": "CC/C(=C(\\C#N)c1ccc(F)cc1)c1ccc(OCCN(CC)CC)cc1", "values": [
      {"measurement": "pEC50", "value": "< 3.70"},
      {"measurement": "pIC50", "value": 5.60}
    ]},
    {"smiles": "COC(=O)C[C@](O)(CCC(C)(C)O)C(=O)O[C@@H]1C(OC)=C[C@]23CCCN2CCc2cc4c(cc2[C@H]13)OCO4", "values": [
      {"measurement": "outcome", "value": "inactive"}
    ]},
    {"smiles": "O=C(Nc1cccc(C(F)(F)F)c1)c1cc(-c2ccccc2)nc(=S)[nH]1", "values": [
      {"measurement": "pEC50", "value": "< 3.18"},
      {"measurement": "pIC50", "value": "< 3.18"}
    ]},
    {"smiles": "Cc1c(C)c(C)n(C2OC(CO)C(O)C(O)C2O)c(=S)c1C#N", "note": "(stereo not given)", "values": [
      {"measurement": "pEC50", "value": "< 4.00"},
      {"measurement": "pIC50", "value": "< 4.00"}
    ]},
    {"smiles": "O=c1c2cc(Br)ccc2oc2ccc(Br)cc12", "values": [
      {"measurement": "outcome", "value": "inactive"}
    ]},
    {"smiles": "CCCCCOC(=S)SSSC(=S)OCCCCC", "values": [
      {"measurement": "pEC50", "value": "< 3.70"},
      {"measurement": "pIC50", "value": 5.11}
    ]},
    {"smiles": "OCc1c(-c2cccc3ccccc23)sc(-c2cccc3ccccc23)c1CO", "values": [
      {"measurement": "outcome", "value": "inactive"}
    ]},
    {"smiles": "N#CC1C(=S)NC(c2ccccc2)=CC12CCCCC2", "note": "(stereo not given)", "values": [
      {"measurement": "pEC50", "value": "< 3.70"},
      {"measurement": "pIC50", "value": 4.37}
    ]},
    {"smiles": "CC1CC2C3CC(F)C4=CC(=O)C=CC4(C)C3(F)C(O)CC2(C)C1(O)C(=O)COC(=O)C(C)(C)C", "note": "(stereo not given)", "values": [
      {"measurement": "outcome", "value": "inactive"}
    ]},
    {"smiles": "CCOC(=O)/C(=C\\c1cccc(Cl)c1)[Se]c1ccccc1", "values": [
      {"measurement": "pEC50", "value": "< 4.85"},
      {"measurement": "pIC50", "value": "< 4.85"}
    ]},
    {"smiles": "COc1ccc(-c2nnc3n(C)c4ccccc4n3c2=O)cc1", "values": [
      {"measurement": "pEC50", "value": "< 4.00"},
      {"measurement": "pIC50", "value": "< 4.00"}
    ]},
    {"smiles": "C=CC(C)(C)n1cc(C2=C(O)C(=O)C(c3cn(C(C)(C)C=C)c4ccccc34)=C(O)C2=O)c2ccccc21", "values": [
      {"measurement": "pEC50", "value": "< 4.65"},
      {"measurement": "pIC50", "value": 4.91}
    ]},
    {"smiles": "CN(C)CCCn1c2c3ccccc3ccc2c2oc(=O)c3ccccc3c21", "values": [
      {"measurement": "pEC50", "value": "< 4.48"},
      {"measurement": "pIC50", "value": 5.79}
    ]},
    {"smiles": "OC(CN(CCCl)CCCl)C(O)C(O)C(O)CN(CCCl)CCCl", "note": "(stereo not given)", "values": [
      {"measurement": "outcome", "value": "inactive"}
    ]},
    {"smiles": "c1ccc([P+](Cc2ccc3c(c2)OCO3)(c2ccccc2)c2ccccc2)cc1", "values": [
      {"measurement": "pEC50", "value": "< 3.70"},
      {"measurement": "pIC50", "value": 5.47}
    ]},
    {"smiles": "Cc1c2ccc(Cl)cc2nc2ccc(OCCNC(=O)[C@@H](N)CCCN=C(N)N)cc12", "values": [
      {"measurement": "pEC50", "value": "< 3.70"},
      {"measurement": "pIC50", "value": 4.51}
    ]},
    {"smiles": "O=c1[nH]nc(Cc2ccc(Cl)cc2)n1Nc1ccccc1", "values": [
      {"measurement": "pEC50", "value": "< 3.70"},
      {"measurement": "pIC50", "value": "< 3.70"}
    ]},
    {"smiles": "OC12OC3(c4ccc(C(F)(F)F)cc4)C4C5CC(C6C5C3C61)C42", "note": "(stereo not given)", "values": [
      {"measurement": "outcome", "value": "inactive"}
    ]},
    {"smiles": "COc1ccc(C(=O)NC(=S)Nc2ccccc2)cc1", "values": [
      {"measurement": "pEC50", "value": "< 4.46"},
      {"measurement": "pIC50", "value": "< 4.46"}
    ]},
    {"smiles": "O=C(Cc1nc2ccccc2o1)C(=O)Nc1ccccc1C(F)(F)F", "values": [
      {"measurement": "outcome", "value": "inactive"}
    ]},
    {"smiles": "COC(=O)NC(Nc1ccccn1)(C(F)(F)F)C(F)(F)F", "values": [
      {"measurement": "pEC50", "value": "< 3.70"},
      {"measurement": "pIC50", "value": "< 3.70"}
    ]},
    {"smiles": "CCOC(=O)C1C(=O)CC(O)(c2ccccc2)C(C(=O)OCC)C1c1ccc(N(C)C)cc1", "note": "(stereo not given)", "values": [
      {"measurement": "pEC50", "value": "< 3.70"},
      {"measurement": "pIC50", "value": 5.39}
    ]},
    {"smiles": "COc1ccc2c(c1)N(C(C)=O)CN1C(=O)CCC21", "note": "(stereo not given)", "values": [
      {"measurement": "outcome", "value": "inactive"}
    ]}
  ]
}
